# Results: patent publication US20230382925A1, “MODULATORS OF CYSTIC FIBROSIS TRANSMEMBRANE CONDUCTANCE REGULATOR” (VERTEX PHARMACEUTICALS INCORPORATED, priority 2020, published 2023)
# Legend:
# Type in all cases: cell-based
# [1] = molecular target: T1, CFTR (Homo sapiens, UniProt P13569, DEL508-508); assay: HBE assay: Ussing chamber assay of CFTR-mediated short-circuit currents (F508del/MF-HBE, with 1 μM Ivacaftor); conditions: F508del/MF-HBE cells, 18-24 hours, 20% human serum; for EC50: range of concentrations with 1 μM Ivacaftor; for HBE Max Activity: with 1 μM Ivacaftor, compared to known Vertex corrector with 18 μM Tezacaftor and 1 μM Ivacaftor; for HBE Activity at 10 μM: single fixed concentration of 10 μM with 1 μM Ivacaftor
# T1 construct: human bronchial epithelial (HBE) cells derived from CF subjects heterozygous for F508del; endogenous in cells; host or cells: primary human bronchial epithelial cells from CF subjects (F508del/MF-HBE)
# Protocol: 1. Ussing Chamber Assay of CFTR-mediated short-circuit currents
# Ussing chamber experiments were performed using human bronchial epithelial (HBE) cells derived from CF subjects heterozygous for F508del and a minimal function CFTR mutation (F508del/MF-HBE) and cultured as previously described (Neuberger T, Burton B, Clark H, Van Goor F Methods Mol Biol 2011:741:39-54). After four days the apical media was removed, and the cells were grown at an air liquid interface for >14 days prior to use.
# To isolate the CFTR-mediated short-circuit (ISC) current, F508del/MF-HBE grown on Costar® Snapwell™ cell culture inserts were mounted in an Ussing chamber and the transepithelial ISC was measured under voltage-clamp recording conditions (Vhold=0 mV) at 37° C. The basolateral solution contained (in mM) 145 NaCl, 0.83 K2HPO4, 3.3 KH2PO4, 1.2 MgCl2, 1.2 CaCl2), 10 Glucose, 10 HEPES (pH adjusted to 7.4 with NaOH) and the apical solution contained (in mM) 145 NaGluconate, 1.2 MgCl2, 1.2 CaCl2), 10 glucose, 10 HEPES (pH adjusted to 7.4 with NaOH) and 30 μM amiloride to block the epithelial sodium channel. Forskolin (20 μM) was added to the apical surface to activate CFTR, followed by apical addition of a CFTR inhibitor cocktail consisting of BPO, GlyH-101, and CFTR inhibitor 172 (each at 20 μM final assay concentration) to specifically isolate CFTR currents. The CFTR-mediated ISC (μA/cm^2) for each condition was determined from the peak forskolin response to the steady-state current following inhibition.
# 2. Identification of Corrector Compounds
# The activity of the CFTR corrector compounds on the CFTR-mediated ISC was determined in Ussing chamber studies as described above. The F508del/MF-HBE cell cultures were either incubated with the corrector compounds at a range of concentrations in combination with 1 μM Ivacaftor or were incubated with the corrector compounds at a single fixed concentration of 10 μM in combination with 1 μM Ivacaftor for 18-24 hours at 37° C. and in the presence of 20% human serum. The concentration of corrector compounds with 1 μM Ivacaftor during the 18-24 hours incubations was kept constant throughout the Ussing chamber measurement of the CFTR-mediated ISC to ensure compounds were present throughout the entire experiment.
# [2] = molecular target: T2, CFTR (Homo sapiens, UniProt P13569); assay: Membrane Potential Dye, Enteroid Assay B
# In short: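 Human intestinal enteroid cells exposed to compound 18-24 h at 37 °C, then loaded with methyl oxonol membrane-potential dye plus CaCC blockers. Chloride transport triggered in chloride-free buffer with 10 μM forskolin, 100 μM IBMX, 300 nM Compound III; fluorescence read 15 min, expressed as % of triple-corrector/potentiator combination control.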
# [3] = molecular target: T2, CFTR; assay: Membrane Potential Dye, Enteroid Assay A
# In short: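 Primary human intestinal enteroid cells exposed to compound for 18–24 hours at 37 °C, then loaded 25 min with methyl oxonol membrane potential dye plus CaCC inhibitors. Chloride transport triggered in chloride-free buffer with 10 μM forskolin, 100 μM IBMX and 300 nM Compound III, fluorescence read 15 min; % Activity relative to a triple-combination corrector/potentiator control.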
# T2 sequence (P13569 with tags, fused parts or gaps DEL508-508): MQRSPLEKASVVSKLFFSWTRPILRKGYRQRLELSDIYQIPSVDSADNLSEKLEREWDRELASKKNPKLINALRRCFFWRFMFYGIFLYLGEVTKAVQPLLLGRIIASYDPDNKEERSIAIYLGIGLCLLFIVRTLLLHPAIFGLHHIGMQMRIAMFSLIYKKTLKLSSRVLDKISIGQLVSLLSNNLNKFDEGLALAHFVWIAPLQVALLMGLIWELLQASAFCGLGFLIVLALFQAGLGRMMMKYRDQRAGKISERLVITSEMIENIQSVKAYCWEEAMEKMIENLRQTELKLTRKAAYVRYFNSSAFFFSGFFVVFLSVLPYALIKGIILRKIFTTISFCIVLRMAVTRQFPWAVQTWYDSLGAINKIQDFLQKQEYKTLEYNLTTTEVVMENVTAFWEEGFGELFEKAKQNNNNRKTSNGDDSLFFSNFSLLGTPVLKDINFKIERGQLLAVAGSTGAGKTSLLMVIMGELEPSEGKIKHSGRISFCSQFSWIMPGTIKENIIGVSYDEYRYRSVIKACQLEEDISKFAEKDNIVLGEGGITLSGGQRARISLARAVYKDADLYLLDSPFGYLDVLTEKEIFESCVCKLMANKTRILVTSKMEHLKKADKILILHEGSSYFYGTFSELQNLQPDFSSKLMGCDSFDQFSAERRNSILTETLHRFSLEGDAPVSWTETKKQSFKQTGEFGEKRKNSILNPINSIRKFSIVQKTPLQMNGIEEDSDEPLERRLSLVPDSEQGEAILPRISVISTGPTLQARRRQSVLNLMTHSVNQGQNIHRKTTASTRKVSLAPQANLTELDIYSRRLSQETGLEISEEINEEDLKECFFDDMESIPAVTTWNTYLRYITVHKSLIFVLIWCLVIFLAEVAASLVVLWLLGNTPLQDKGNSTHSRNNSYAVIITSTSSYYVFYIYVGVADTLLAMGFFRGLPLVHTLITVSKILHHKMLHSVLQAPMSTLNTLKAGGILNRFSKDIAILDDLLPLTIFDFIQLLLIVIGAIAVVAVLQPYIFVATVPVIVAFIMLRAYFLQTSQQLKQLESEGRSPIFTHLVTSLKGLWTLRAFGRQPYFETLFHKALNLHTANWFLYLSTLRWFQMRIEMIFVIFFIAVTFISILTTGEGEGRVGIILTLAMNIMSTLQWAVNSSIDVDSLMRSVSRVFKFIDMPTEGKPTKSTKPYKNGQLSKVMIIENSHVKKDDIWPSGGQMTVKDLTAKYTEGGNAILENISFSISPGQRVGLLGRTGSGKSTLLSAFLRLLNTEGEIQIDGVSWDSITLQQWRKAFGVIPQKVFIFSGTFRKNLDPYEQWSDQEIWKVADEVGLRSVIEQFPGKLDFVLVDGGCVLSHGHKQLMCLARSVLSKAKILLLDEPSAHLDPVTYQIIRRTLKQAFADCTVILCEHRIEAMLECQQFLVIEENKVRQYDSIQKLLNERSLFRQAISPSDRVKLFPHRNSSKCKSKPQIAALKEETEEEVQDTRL
# T1 sequence (P13569 with tags, fused parts or gaps DEL508-508): as above
SMILES,EC50 [1] [nM],HBE Max Activity [1],further results
"Cc1cccc(C)c1-c1cc2nc(n1)NS(=O)(=O)c1cccc(c1)C(=O)N(C1CC3(CC(N4CCOCC4)C3)C1)[C@H](CC(C)(C)C)CO2 (single isomer, unassigned) [Compound 432]",< 1000,+++ (+++ is >60%),
Cc1cccc(C)c1-c1cc2nc(n1)NS(=O)(=O)c1cccc(c1)C(=O)N(c1cnn(CC(N)=O)c1)[C@H](CC(C)(C)C)CO2 [Compound 426],1000 to 3000,+++ (+++ is >60%),
Cc1cccc(C)c1-c1cc2nc(n1)NS(=O)(=O)c1cccc(c1)C(=O)N(C1CC3(CCN(c4ccccn4)CC3)C1)[C@H](CC(C)(C)C)CO2 [Compound 350],< 1000,+++ (+++ is >60%),
Cc1cccc(C)c1-c1cc2nc(n1)NS(=O)(=O)c1cccc(c1)C(=O)N(C1CC3(C1)CC(O)(Cc1ccccc1)C3)[C@H](CC(C)(C)C)CO2 (stereo in doubt) [Compound 431],< 1000,+++ (+++ is >60%),
Cc1cccc(C)c1-c1cc2nc(n1)NS(=O)(=O)c1cccc(c1)C(=O)N(C1CC(N3C[C@@H](C)O[C@@H](C)C3)C1)[C@H](CC(C)(C)C)CO2 (stereo in doubt) [Compound 434],,,HBE Activity at 10 μM [1]: +++ (+++ is >60%)
Cc1cccc(CO)c1-c1cc2nc(n1)NS(=O)(=O)c1cccc(c1)C(=O)N([C@H]1CC3(C[C@H](NC(=O)OC(C)C)C3)C1)[C@H](CC(C)(C)C)CO2 (stereo in doubt) [Compound 402],,,HBE Activity at 10 μM [1]: ++ (++ is 30-60%)
"Cc1cccc(C)c1-c1cc2nc(n1)NS(=O)(=O)c1cccc(c1)C(=O)N([C@H]1C[C@@](O)(Cc3ccccc3)C1)[C@H](CC(C)(C)C)CO2 (single isomer, unassigned) [Compound 140]",< 1000,+++ (+++ is >60%),
"Cc1cccc(C)c1-c1cc2nc(n1)NS(=O)(=O)c1cccc(c1)C(=O)N(c1cn[nH]c1)[C@H](CC(C)C)CO2 [Compound 99, (11R)-6-(2,6-Dimethylphenyl)-11-isobutyl-2,2-dioxo-12-(1H-pyrazol-4-yl)-9-oxa-2λ^6-thia-3,5,12,19-tetrazatricyclo[12.3.1.14,8]nonadeca-1(18),4(19),5,7,14,16-hexaen-13-one]",3000 to 30000,+++ (+++ is >60%),
Cc1cccc(C)c1-c1cc2nc(n1)NS(=O)(=O)c1cccc(c1)C(=O)N(C1CC3(CCN(C)CC3)C1)[C@@H]1CN(C3CC4(CCCCC4)C3)C[C@H]1O2 (stereo partly shown) [Compound 473],,,HBE Activity at 10 μM [1]: +++ (+++ is >60%)
Cc1cccc(CO)c1-c1cc2nc(n1)NS(=O)(=O)c1cccc(c1)C(=O)N(C1CC3(CC(NC(=O)OC(C)C)C3)C1)[C@H](CC(C)(C)C)CO2 (stereo partly shown) [Compound 209],,,HBE Activity at 10 μM [1]: ++ (++ is 30-60%)
Cc1cccc(C)c1-c1cc2nc(n1)NS(=O)(=O)c1cccc(c1)C(=O)N(C1CC3(C1)CC(O)(Cc1ccccc1)C3)[C@H](CC(C)(C)C)CO2 (stereo in doubt) [Compound 430],< 1000,+++ (+++ is >60%),
Cc1cccc(C)c1-c1cc2nc(n1)NS(=O)(=O)c1cccc(c1)C(=O)N([C@H]1C[C@@]3(C[C@H](N(C)CC(F)(F)F)C3)C1)[C@H](CC1(C(F)(F)F)CC1)CO2 (stereo partly shown) [Compound 221],< 1000,+++ (+++ is >60%),
"Cc1cccc(C)c1-c1cc2nc(n1)NS(=O)(=O)c1cccc(c1)C(=O)N([C@H]1C[C@@H](N3CCOCC3)C1)[C@H](CC(C)(C)C)CO2 [Compound 178, (11R)-6-(2,6-Dimethylphenyl)-11-(2,2-dimethylpropyl)-12-(3-morpholinocyclobutyl)-2,2-dioxo-9-oxa-2λ^6-thia-3,5,12,19-tetrazatricyclo[12.3.1.14,8]nonadeca-1(18),4(19),5,7,14,16-hexaen-13-one]",< 1000,+++ (+++ is >60%),
"Cc1cccc(C)c1-c1cc2nc(n1)NS(=O)(=O)c1cccc(c1)C(=O)N([C@H]1C[C@](C)(O)C1)[C@H](CC(C)(C)C)CO2 (single isomer, unassigned) [Compound 139]",< 1000,+++ (+++ is >60%),
Cc1cccc(C)c1-c1cc2nc(n1)NS(=O)(=O)c1cccc(c1)C(=O)N(C1CC3(CCCCN3C(=O)CO)C1)[C@H](CC(C)(C)C)CO2 (stereo in doubt) [Compound 204],,,HBE Activity at 10 μM [1]: +++ (+++ is >60%)
"Cc1cccc(C)c1-c1cc2nc(n1)NS(=O)(=O)c1cccc(c1)C(=O)N(C1CC3(CC(N4C[C@@H](C)O[C@@H](C)C4)C3)C1)[C@H](CC(C)(C)C)CO2 (single isomer, unassigned) [Compound 87]",< 1000,+++ (+++ is >60%),
Cc1cccc(C)c1-c1cc2nc(n1)NS(=O)(=O)c1cccc(c1)C(=O)N(C1CC3(CC(N4CCOCC4)C3)C1)[C@H](CC(C)(C)C)CO2 (stereo partly shown) [Compound 433],< 1000,+++ (+++ is >60%),
"Cc1cccc(C)c1-c1cc2nc(n1)NS(=O)(=O)c1cccc(c1)C(=O)N(C1CC3(CC(N4C[C@@H](C)O[C@@H](C)C4)C3)C1)[C@H](CC(C)(C)C)CO2 (single isomer, unassigned) [Compound 86]",< 1000,+++ (+++ is >60%),
"Cc1cccc(C)c1-c1cc2nc(n1)NS(=O)(=O)c1cccc(c1)C(=O)N(c1cn[nH]c1)[C@H](CC(C)(C)C)CO2 [Compound 185, (11R)-6-(2,6-Dimethylphenyl)-11-(2,2-dimethylpropyl)-2,2-dioxo-12-(1H-pyrazol-4-yl)-9-oxa-2λ^6-thia-3,5,12,19-tetrazatricyclo[12.3.1.14,8]nonadeca-1(18),4(19),5,7,14,16-hexaen-13-one]",< 1000,+++ (+++ is >60%),
"Cc1cccc(C)c1-c1cc2nc(n1)NS(=O)(=O)c1cccc(c1)C(=O)N([C@H]1C[C@@]3(CCCN(C(=O)CO)C3)C1)[C@H](CC(C)(C)C)CO2 (single isomer, unassigned) [Compound 144]",< 1000,+++ (+++ is >60%),
Cc1cccc(C)c1-c1cc2nc(n1)NS(=O)(=O)c1cccc(c1)C(=O)N(c1cnn(CC(=O)OC(C)(C)C)c1)[C@H](CC(C)C)CO2 [Compound 429],< 1000,+++ (+++ is >60%),
Cc1cccc(C)c1-c1cc2nc(n1)NS(=O)(=O)c1cccc(c1)C(=O)N(c1cnn(CC(=O)OC(C)(C)C)c1)[C@H](CC(C)(C)C)CO2 [Compound 427],< 1000,+++ (+++ is >60%),
"Cc1cccc(C)c1-c1cc2nc(n1)NS(=O)(=O)c1cccc(c1)C(=O)N(C1CN(C(=O)OCc3ccccc3)C1)[C@H](CC(C)C)CO2 [Compound 100, Benzyl 3-[(11R)-6-(2,6-dimethylphenyl)-11-isobutyl-2,2,13-trioxo-9-oxa-2λ^6-thia-3,5,12,19-tetrazatricyclo[12.3.1.14,8]nonadeca-1(18),4(19),5,7,14,16-hexaen-12-yl]azetidine-1-carboxylate]",,,Ent. B Max Activity (%) [2]: +++ (+++ is >60%); EC50 ([2]; read-out: Ent. B EC50): < 1000 nM; Ent. A Max Activity (%) [3]: +++ (+++ is >60%); EC50 ([3]; read-out: Ent. A EC50): < 1000 nM
